Experimental data as given in patent US5334594A, “Amphoteric tricyclic compound” (Hokoriku Pharmaceutical Co., Ltd., priority 1992, dated 1994).
Where a name gives a salt, the structure may show the parent alone. Read-outs that look alike come from different tables or passages of the source.

Tests used:
[1] = tested on: compound 48/80-induced lethality (antihistaminic (H1) activity); experiment: Inhibitory effect on compound 48/80-induced lethality in rats (antihistaminic activity); assay type: in vivo, rat (male Wistar); conditions: Rattus norvegicus, po, 2 h; 1 mg/kg orally one hour before compound 48/80 (1 mg/kg i.v.); survival after two hours; read-out: Survival rate
Protocol: 1. Inhibitory Effects on Compound 48/80-Induced Lethality in Rats (Antihistaminic Activity)
The evaluation of antihistaminic activity was carried out according to the method of Niemegeers et al. (Arch. Int. Pharmacodyn. Ther., 234, 164 (1978)).
Male Wistar rats, 6 weeks of age, were used in the experiments. Compound 48/80 (formaldehyde condensation product of p-methoxy-N-methylphenethylamine) was administered intravenously to rats at a lethal dose of 1 mg/kg. Survival rates were determined according to an all or non criteria by using the numbers of rats that survived after two hours. Test compounds (1 mg/kg) were administered orally to rats one hour before the administration of compound 48/80.

[2] = tested on: histamine-induced bronchoconstriction; experiment: Inhibitory effects on histamine-induced bronchoconstriction in anesthetized guinea-pigs (antiasthmatic activity); assay type: in vivo, guinea-pig (male Hartley); conditions: for ED50: Cavia porcellus, 2 h, read-out: Antiasthmatic activity (B) ED50
Protocol: 3. Inhibitory Effects on Histamine-Induced Bronchoconstriction in Anesthetized Guinea-Pigs (Antiasthmatic Activity)
The induction and evaluation of antiasthmatic activity were carried out according to the method of Makino et al. (J. Pharm. Pharmacol., 42, 236 (1990)).
Male Hartley guinea-pigs, 6 weeks of age, were anesthetized with urethane ( 1.5 g/kg, i.p. ). The carotid artery and jugular vein were cannulated to measure arterial blood pressure and to facilitate intravenous histamine administration. The trachea was cannulated and the animals were ventilated using a respiratory pump (60 strokes/min; 4 ml/stroke). Changes in insufflation pressure induced by the administration of histamine (20 μg/kg, i.v.) at a constant airflow were constantly monitored as percentage values based on the maximum pressure (100%) (Bronchospasm tramsducer 7020, Ugo Basile). Test compounds were administered orally to animals two hours before the administration of histamine. The ED50 values (doses which induce 50% inhibition of histamine-induced broncho-constriction compared to inhibition observed in control) were calculated using dose-inhibition curves.

[3] = biological target: muscarinic acetylcholine receptor; experiment: Inhibition of [^3 H]-QNB binding to rat cerebral cortex membrane (muscarinic acetylcholine receptor binding assay); conditions: -log Ki by Cheng and Prusoff
[4] = tested on: 48 h homologous passive cutaneous anaphylaxis (PCA); experiment: Inhibitory effects on 48 h homologous passive cutaneous anaphylaxis (PCA) in rats (antiallergic activity); assay type: in vivo, rat (male Wistar); conditions: 1 mg/kg orally one hour before antigen challenge
Protocol: 2. Inhibitory Effects on 48 h Homologous Passive Cutaneous Anaphylaxis (PCA) in Rats (Antiallergic Activity)
The induction and evaluation of antiallergic activity were carried out according to the method of Makino et al. (Japan J. Pharmacology, 52, 87 (1990)).
Male Wistar rats, 6 weeks of age, were passively sensitized by intracutaneous injection on the back at a volume of 0.1 ml of 20- or 40-fold diluted anti-DNP-As rat serum. After 48 hours, the animals were challenged by an intravenous injection of 0.5 ml saline solution containing 1 mg of DNP-As and 5 mg of Evans blue. The animals were sacrificed 30 minutes after the challenge and then the extravasated dye was extracted with 1N KOH and acetone. After neutralization with 1N H3 PO4, the amount of dye was determined by measuring the absorbance of the extract at 620 nm. Test compounds (1 mg/kg) were orally administered to rats one hour before the antigen challenge. The inhibitory activity of test compounds were obtained as percent inhibition of PCA by comparing the results obtained from control rats.

histamine (H1) receptor = biological target: T1, histamine (H1) receptor (Cavia porcellus, UniProt P31389); experiment: Inhibitory effects on ex vivo [^3 H]-mepyramine binding to guinea-pig cerebral cortex (degree of penetration into brain); assay type: in vivo, guinea-pig (male Hartley); conditions: for ED50: 2 h, oral, two hours, ex vivo [^3 H]-mepyramine binding, guinea-pig cerebral cortex, read-out: Degree of penetration activity (A) ID50; for Selectivity (C/B): ratio of ID50 (brain penetration, C) to ED50 (antiasthmatic activity, B)
T1 construct: Separated cerebral cortices were homogenized in 50-folds volume of 50 mM Na/K-phosphate buffer (pH 7.4); from tissue; host or cells: guinea-pig cerebral cortex, crude membrane fraction (homogenate)
T1 sequence (P31389 whole entry): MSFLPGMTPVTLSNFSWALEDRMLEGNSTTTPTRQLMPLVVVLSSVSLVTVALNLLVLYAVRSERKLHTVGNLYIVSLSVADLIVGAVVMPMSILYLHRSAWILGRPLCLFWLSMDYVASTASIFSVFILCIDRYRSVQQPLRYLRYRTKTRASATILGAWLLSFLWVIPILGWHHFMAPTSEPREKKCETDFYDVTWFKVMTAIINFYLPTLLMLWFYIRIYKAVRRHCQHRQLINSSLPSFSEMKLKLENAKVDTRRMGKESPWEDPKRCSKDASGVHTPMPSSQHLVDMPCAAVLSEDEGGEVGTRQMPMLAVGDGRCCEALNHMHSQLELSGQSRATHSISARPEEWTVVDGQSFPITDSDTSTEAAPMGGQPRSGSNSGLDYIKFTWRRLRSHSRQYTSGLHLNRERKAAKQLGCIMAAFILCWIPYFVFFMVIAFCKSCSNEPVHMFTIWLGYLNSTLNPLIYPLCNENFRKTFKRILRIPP
Protocol: 4. Inhibitory Effects on Ex Vivo [^3 H]-Mepyramine Binding to Guinea-Pig Cerebral Cortex (Degree of Penetration into Brain)
The evaluation of histamine (H1) receptor affinity on guinea-pig cerebral cortex was carried out according to the method of Ahn et al. (Eur. J. Pharmacol., 127, 153 (1986)).
Male Hartley guinea-pigs, 6 weeks of age, were administered orally with test compounds or vehicles. After two hours, animals were killed by exsanguination and brains were rapidly isolated. Separated cerebral cortices were homogenized in 50-folds volume of 50 mM Na/K-phosphate buffer (pH 7.4). These homogenates were used as crude membrane fractions for receptor binding assay. [^3 H]-mepyramine was used as a radio-active ligand. […] The ID50 values (doses which induce 50% inhibition of specific binding of vehicle treated group) were calculated using dose-inhibition curves.

[5] = oral, two hours before histamine (20 μg/kg, i.v.), anesthetized guinea-pigs

SMILES	responders at 1 mg/kg [1] [%]	pKi [3]	Antiallergic activity (A) inhibition (%) [4] [%]	other results
O=C(O)CCCN1CCC(=C2c3ccc(F)cc3OCc3cccnc32)CC1 [Example 10-(2), 4-[4-(8-Fluoro-5,11-dihydrobenz[b]oxepino[4,3-b]pyridin-11-ylidene)piperidino]butyric Acid]	100			
O=C(O)CCN1CCC(=C2c3cccc(Cl)c3OCc3cccnc32)CC1 [Example 4-(2), 3-[4-(7-Chloro-5,11-dihydrobenz[b]oxepino[4,3-b]pyridin-11-ylidene)piperidino]propionic Acid. Hydrochloride]	100			
O=C(O)CCCCN1CCC(=C2c3ccc(Cl)cc3OCc3cccnc32)CC1 [Example 20-(2), 5-[4-(8-Chloro-5,11-dihydrobenz[b]oxepino[4,3-b]pyridin-11-ylidene)piperidino]valeric Acid. Hydrochloride]	100			
O=C(O)CCN1CCC(=C2c3ccc(F)cc3OCc3cccnc32)CC1 [Example 2-(2), 3-[4-(8-Fluoro-5,11-dihydrobenz[b]oxepino[4,3-b]pyridin-11-ylidene)piperidino]propionic Acid]	100	< 5	78	ED50 [2, 5]: 0.046 mg/kg; ED50 (histamine (H1) receptor): 32 mg/kg; Selectivity (C/B) (histamine (H1) receptor): 696
O=C(O)CCN1CCC(=C2c3ccc(Cl)cc3OCc3cccnc32)CC1 [Example 5-(2), 3-[4-(8-Chloro-5,11-dihydrobenz[b]oxepino[4,3-b]pyridin-11-ylidene)piperidino]propionic Acid. Hydrochloride]	100	< 5	79	ED50 [2, 5]: 0.023 mg/kg; ED50 (histamine (H1) receptor): 53 mg/kg; Selectivity (C/B) (histamine (H1) receptor): 2304
O=C(O)CCCCCN1CCC(=C2c3ccc(F)cc3OCc3cccnc32)CC1 [Example 12-(2), 6-[4-(8-Fluoro-5,11-dihydrobenz[b]oxepino[4,3-b]pyridin-11-ylidene)piperidino]hexanoic Acid . Hydrochloride]	100			
CCOC(=O)CN1CCC(=C2c3ccc(Cl)cc3CCc3cccnc32)CC1 [Reference compound D, reference compound]	40	5.84	41	ED50 [2, 5]: 0.29 mg/kg; ED50 (histamine (H1) receptor): 11 mg/kg; Selectivity (C/B) (histamine (H1) receptor): 38
O=C(O)CCCN1CCC(=C2c3ccc(F)cc3Oc3cccnc32)CC1 [Example 23-(2), 4-[4-(7-Fluoro-10H-benzo[b]pyrano[3,2-b]pyridin-10-ylidene)piperidino]butyric Acid]	100			
CN1CCC(=C2c3ccccc3CCc3cccnc32)CC1 [Reference compound A, Azatadine, reference compound]	60	8.47	77	ED50 [2, 5]: 0.001 mg/kg; ED50 (histamine (H1) receptor): 0.028 mg/kg; Selectivity (C/B) (histamine (H1) receptor): 28
O=C(O)CCN1CCC(=C2c3ccccc3Oc3cccnc32)CC1 [Example 8-(2), 3-[4-(10H-benzo[b]pyrano[3,2-b]pyridin-10-ylidene)piperidino]propionic Acid]	100			
O=C(O)CCN1CCC(=C2c3cc(Cl)ccc3OCc3cccnc32)CC1 [Example 6-(2), 3-[4-(9-Chloro-5,11-dihydrobenz[b]oxepino[4,3-b]pyridin-11-ylidene)piperidino]propionic Acid]	100			
O=C(O)CCN1CCC(=C2c3ccc(F)cc3Oc3cccnc32)CC1 [Example 9-(2), 3-[4-(7-Fluoro-10H-benzo[b]pyrano[3,2-b]pyridin-10-ylidene)piperidino]propionic Acid]	100			
O=C(O)CCCCN1CCC(=C2c3ccc(F)cc3OCc3cccnc32)CC1 [Example 11-(2), 5-[4-(8-Fluoro-5,11-dihydrobenz[b]oxepino[4,3-b]pyridin-11-ylidene)piperidino]valetic Acid]	100			
O=C(O)CCCCCN1CCC(=C2c3ccc(Cl)cc3OCc3cccnc32)CC1 [Example 21-(2), 6-[4-(8-Chloro-5,11-dihydrobenz[b]oxepino[4,3-b]pyridin-11-ylidene)piperidino]hexanoic Acid . Hydrochloride]	100			
O=C(O)CCCN1CCC(=C2c3ccc(Cl)cc3OCc3cccnc32)CC1 [Example 18-(2), 4-[4-(8-Chloro-5,11-dihydrobenz[b]oxepino[4,3-b]pyridin-11-ylidene)piperidino]butyric Acid. Hydrochloride]	80			
CCOC(=O)N1CCC(=C2c3ccc(Cl)cc3CCc3cccnc32)CC1 [Reference compound B, Loratadine]	60	6.04	38	ED50 ([2]; po): 0.13 mg/kg
CC(=O)N1CCC(=C2c3ccc(Cl)cc3OCc3cccnc32)CC1 [Reference compound C]	20	5.72	-11	Antiasthmatic activity (B) ED50 [2, 5]: No effect (1 mg/kg)
O=C(O)CCN1CCC(=C2c3ccccc3OCc3cccnc32)CC1 [Example 1-(2), 3-[4-(5,11-Dihydrobenz[b]oxepino[4,3-b]pyridin-11-ylidene)piperidino]propionic Acid.Hydrochloride]	80		80	ED50 [2, 5]: 0.082 mg/kg; ED50 (histamine (H1) receptor): 36 mg/kg; Selectivity (C/B) (histamine (H1) receptor): 439
CC(CN1CCC(=C2c3ccc(F)cc3OCc3cccnc32)CC1)C(=O)O (stereo not shown) [Example 14-(2), 3-[4-(8-Fluoro-5,11-dihydrobenz[b]oxepino[4,3-b]pyridin-11-ylidene)piperidino]-2-methylpropionic Acid]	100			
